The source of these data is ChEMBL document CHEMBL1147425, “Structure-activity relationships of non-imidazole H(3) receptor ligands. Part 3: 5-Substituted 3-phenyl-1,2,4-oxadiazoles as potent antagonists” (Bioorg Med Chem Lett, 2004).

Each structure is given as a SMILES string.

One experiment has as its target Histamine H1 receptor (Homo sapiens, UniProt P35367). The experiment can be described thus: Binding affinity towards histamine H1 receptor of human colon cells was determined. It counts as cell-based.
Experiment [1] has as its target Histamine H3 receptor (Homo sapiens, UniProt Q9Y5N1). The experiment can be described thus: Binding affinity for human histamine H3 receptor on human colon cells. The class given is cell-based.
For the next experiment, the target named is Histamine H2 receptor (Homo sapiens, UniProt P25021). Briefly: Binding affinity towards histamine H2 receptor of human colon cells was determined. It counts as cell-based.
For experiment [2], the target named is Histamine H3 receptor (Rattus norvegicus, UniProt Q9QYN8). The experiment can be described thus: Binding affinity for rat histamine H3 receptor on rat cortical cells.
A further experiment deals with Mus musculus. The experiment can be described thus: Antagonistic effect was observed against agonist induced dipsogenia in mice after i.p. administration of compound; Active. The class given is functional.
A further experiment addresses Histamine H4 receptor (Homo sapiens, UniProt Q9H3N8). Briefly: Binding affinity towards histamine H4 receptor of human colon cells was determined. It counts as cell-based.

Chain of Histamine H3 receptor (Rattus norvegicus, UniProt Q9QYN8) (Q9QYN8 whole entry): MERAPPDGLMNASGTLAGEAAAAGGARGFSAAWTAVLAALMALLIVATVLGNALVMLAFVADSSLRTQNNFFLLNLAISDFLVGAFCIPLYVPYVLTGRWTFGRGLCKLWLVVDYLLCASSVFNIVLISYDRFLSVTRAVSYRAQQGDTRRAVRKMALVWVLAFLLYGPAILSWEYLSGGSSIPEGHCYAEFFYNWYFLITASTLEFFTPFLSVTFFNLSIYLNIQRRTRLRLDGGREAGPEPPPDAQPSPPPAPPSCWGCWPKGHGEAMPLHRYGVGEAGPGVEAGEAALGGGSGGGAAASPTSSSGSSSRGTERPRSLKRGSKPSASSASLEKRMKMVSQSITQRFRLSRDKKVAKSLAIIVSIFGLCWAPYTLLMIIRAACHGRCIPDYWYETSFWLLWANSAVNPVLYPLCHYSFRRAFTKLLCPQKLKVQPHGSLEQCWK
Chain of Histamine H3 receptor (Homo sapiens, UniProt Q9Y5N1) (Q9Y5N1 whole entry): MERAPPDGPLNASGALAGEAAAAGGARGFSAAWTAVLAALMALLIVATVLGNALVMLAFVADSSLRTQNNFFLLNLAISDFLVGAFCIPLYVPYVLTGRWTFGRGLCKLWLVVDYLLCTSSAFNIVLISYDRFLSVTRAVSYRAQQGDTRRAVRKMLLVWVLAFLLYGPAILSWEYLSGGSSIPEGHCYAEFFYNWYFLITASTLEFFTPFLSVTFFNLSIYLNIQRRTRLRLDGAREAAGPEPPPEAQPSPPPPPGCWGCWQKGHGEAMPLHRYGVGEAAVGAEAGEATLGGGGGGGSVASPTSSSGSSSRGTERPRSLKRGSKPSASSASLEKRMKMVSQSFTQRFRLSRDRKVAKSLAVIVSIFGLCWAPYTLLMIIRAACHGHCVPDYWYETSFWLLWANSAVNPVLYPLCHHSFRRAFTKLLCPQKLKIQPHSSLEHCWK
Chain of Histamine H2 receptor (P25021 whole entry): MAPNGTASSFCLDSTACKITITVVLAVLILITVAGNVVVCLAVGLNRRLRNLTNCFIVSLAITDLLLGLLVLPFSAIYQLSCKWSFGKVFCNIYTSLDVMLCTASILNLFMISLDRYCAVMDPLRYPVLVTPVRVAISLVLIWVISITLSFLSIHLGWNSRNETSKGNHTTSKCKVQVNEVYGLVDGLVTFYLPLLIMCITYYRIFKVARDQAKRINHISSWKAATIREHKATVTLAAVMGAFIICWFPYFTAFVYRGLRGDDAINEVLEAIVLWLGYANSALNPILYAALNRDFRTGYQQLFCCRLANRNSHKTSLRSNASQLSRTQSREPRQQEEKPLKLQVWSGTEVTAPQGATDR
Chain of Histamine H1 receptor (P35367 whole entry): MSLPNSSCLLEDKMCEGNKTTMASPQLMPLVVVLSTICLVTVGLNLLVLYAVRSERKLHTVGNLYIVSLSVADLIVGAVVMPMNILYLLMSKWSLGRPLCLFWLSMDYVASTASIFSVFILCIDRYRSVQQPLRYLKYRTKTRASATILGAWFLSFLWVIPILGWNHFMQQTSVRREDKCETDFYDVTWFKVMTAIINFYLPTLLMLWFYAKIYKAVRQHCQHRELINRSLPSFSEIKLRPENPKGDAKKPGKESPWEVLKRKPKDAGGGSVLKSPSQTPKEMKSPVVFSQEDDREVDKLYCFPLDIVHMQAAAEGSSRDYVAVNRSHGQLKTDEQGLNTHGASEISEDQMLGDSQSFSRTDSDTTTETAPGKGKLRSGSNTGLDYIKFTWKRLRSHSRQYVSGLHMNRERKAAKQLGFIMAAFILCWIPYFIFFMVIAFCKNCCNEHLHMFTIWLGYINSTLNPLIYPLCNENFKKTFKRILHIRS
Chain of Histamine H4 receptor (Q9H3N8 whole entry): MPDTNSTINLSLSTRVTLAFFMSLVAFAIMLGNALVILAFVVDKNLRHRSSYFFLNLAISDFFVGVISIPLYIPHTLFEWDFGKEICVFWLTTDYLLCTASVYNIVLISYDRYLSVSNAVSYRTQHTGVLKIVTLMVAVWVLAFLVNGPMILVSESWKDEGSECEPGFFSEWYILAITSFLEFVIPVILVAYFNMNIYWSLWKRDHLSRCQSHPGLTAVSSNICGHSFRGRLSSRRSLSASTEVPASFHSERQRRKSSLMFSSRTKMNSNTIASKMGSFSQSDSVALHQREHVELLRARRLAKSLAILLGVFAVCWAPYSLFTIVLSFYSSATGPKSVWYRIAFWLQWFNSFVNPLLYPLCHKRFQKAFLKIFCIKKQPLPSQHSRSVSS

For the compound `C[C@@H](NC(=O)c1ccc(N(C)C)cc1)C(=O)N1CCN(CCCOc2ccc(-c3noc(CC4CCCC4)n3)c(F)c2)CC1`, the Ki on Histamine H1 receptor was 0.89 µM; on Histamine H3 receptor [1], 0.015 µM; at Histamine H2 receptor it was more than 10 µM; at Histamine H3 receptor [2], 0.0024 µM; on Histamine H4 receptor, more than 10 µM. For the same compound, the Activity with Mus musculus was more than 0.01 µM/kg.

`COc1ccccc1C(=O)N[C@H](C)C(=O)N1CCN(CCCOc2ccc(-c3noc(CC4CCCC4)n3)c(F)c2)CC1`: the figures for the inhibition constant (Ki) on Histamine H3 receptor [1] and on Histamine H3 receptor [2] were 0.054 µM and 0.007 µM, respectively.

Regarding `C[C@@H](NC(=O)c1ccccc1)C(=O)N1CCN(CCCOc2ccc(-c3noc(-c4ccccc4)n3)c(F)c2)CC1`, the Ki on Histamine H3 receptor [1] was 0.039 µM; at Histamine H3 receptor [2] it was 0.0046 µM.

For `C[C@@H](NC(=O)c1ccco1)C(=O)N1CCCN(CCCOc2ccc(-c3noc(-c4ccsc4)n3)c(F)c2)CC1`, the Ki came out at 0.049 µM on Histamine H3 receptor [1] and 0.0026 µM at Histamine H3 receptor [2].

On to `C[C@@H](NC(=O)c1cccc(F)c1)C(=O)N1CCN(CCCOc2ccc(-c3noc(CC4CCCC4)n3)c(F)c2)CC1`, for which the values for the Ki at Histamine H3 receptor [1] and at Histamine H3 receptor [2] were 0.018 µM and 0.0038 µM, respectively.

`C[C@@H](NC(=O)c1ccco1)C(=O)N1CCCN(CCCOc2ccc(-c3noc(C4CCCC4)n3)c(F)c2)CC1`: the Ki turned out to be 0.015 µM at Histamine H3 receptor [1] and 0.00086 µM on Histamine H3 receptor [2].

On to `C[C@@H](NC(=O)c1ccccc1F)C(=O)N1CCN(CCCOc2ccc(-c3noc(CC4CCCC4)n3)c(F)c2)CC1`, for which the Ki amounted to 0.016 µM at Histamine H3 receptor [1] and 0.0029 µM on Histamine H3 receptor [2].

On to `CC(=O)N[C@H](C)C(=O)N1CCN(CCCOc2ccc(-c3noc(CC4CCCC4)n3)c(F)c2)CC1`, for which the Ki at Histamine H3 receptor [1] stood at 0.2 µM; at Histamine H3 receptor [2], 0.0089 µM.

In the case of `C[C@@H](NC(=O)c1ccco1)C(=O)N1CCCN(CCCOc2ccc(-c3noc(CC4CCCCC4)n3)c(F)c2)CC1`, the Ki on Histamine H3 receptor [1] stood at 0.021 µM; at Histamine H3 receptor [2], 0.0026 µM.

With `C[C@@H](NC(=O)c1ccco1)C(=O)N1CCCN(CCCOc2ccc(-c3noc(C4CC4)n3)c(F)c2)CC1`, the values for the inhibition constant (Ki) on Histamine H3 receptor [1] and on Histamine H3 receptor [2] were 0.042 µM and 0.0015 µM, respectively.

Take `CCC(=O)N[C@H](C)C(=O)N1CCCN(CCCOc2ccc(-c3noc(CC4CCCC4)n3)c(F)c2)CC1`: the Ki at Histamine H3 receptor [1] turned out to be 0.026 µM; at Histamine H3 receptor [2] it was 0.0011 µM.

In the case of `C[C@@H](NC(=O)c1ccco1)C(=O)N1CCCN(CCCOc2ccc(-c3noc(CC4CCCC4)n3)c(F)c2)CC1`, the inhibitory constant (Ki) on Histamine H3 receptor [1] amounted to 0.0093 µM; at Histamine H3 receptor [2] it was 0.00083 µM.

Regarding `CC(C)c1nc(-c2ccc(OCCCN3CCCN(C(=O)[C@@H](C)NC(=O)c4ccco4)CC3)cc2F)no1`, the inhibition constant Ki was 0.046 µM on Histamine H3 receptor [1] and 0.0021 µM on Histamine H3 receptor [2].

Consider `C[C@@H](NC(=O)CCN1CCOCC1)C(=O)N1CCN(CCCOc2ccc(-c3noc(CC4CCCC4)n3)c(F)c2)CC1`, for which the Ki at Histamine H3 receptor [1] is 0.037 µM; at Histamine H3 receptor [2], 0.0011 µM.

Regarding `Cc1cccc(C(=O)N[C@H](C)C(=O)N2CCN(CCCOc3ccc(-c4noc(CC5CCCC5)n4)c(F)c3)CC2)c1`, the figures for the Ki at Histamine H3 receptor [1] and on Histamine H3 receptor [2] were 0.031 µM and 0.0047 µM, respectively.

For the compound `CCC(CC)c1nc(-c2ccc(OCCCN3CCCN(C(=O)[C@@H](C)NC(=O)c4ccco4)CC3)cc2F)no1`, the Ki at Histamine H3 receptor [1] came out at 0.034 µM; at Histamine H3 receptor [2], 0.0023 µM.

On to `C[C@@H](NC(=O)c1ccco1)C(=O)N1CCCN(CCCOc2ccc(-c3noc(C4CCCCC4)n3)c(F)c2)CC1`, for which the Ki on Histamine H3 receptor [1] was 0.019 µM; at Histamine H3 receptor [2] it was 0.0024 µM.

For the compound `C[C@@H](NC(=O)c1ccco1)C(=O)N1CCCN(CCCOc2ccc(-c3noc(-c4ccco4)n3)c(F)c2)CC1`, the Ki on Histamine H3 receptor [1] was found to be 0.17 µM; at Histamine H3 receptor [2], 0.005 µM.

Turning to `C[C@@H](NC(=O)c1cccc(C(F)(F)F)c1)C(=O)N1CCN(CCCOc2ccc(-c3noc(CC4CCCC4)n3)c(F)c2)CC1`, the Ki at Histamine H3 receptor [1] is 0.087 µM; on Histamine H3 receptor [2], 0.01 µM.

What is called Ki is a measure of affinity in units of concentration, obtained from inhibition or displacement. High values mean lower affinity, low ones higher affinity.
